# According to patent publication US20030152986A1, “Method for sorting antifungal molecules acting on the glucanosyltransferase activity” (Institut Pasteur, priority 1996, published 2003):
# T1: 49 kDa enzyme (Aspergillus fumigatus, UniProt B0XT72)
# T1 construct: from tissue; host or cells: Aspergillus fumigatus CBS 144-89 mycelium, cell wall autolysate; four ion-exchange steps and one gel filtration
# T1 sequence (B0XT72 whole entry, looked up): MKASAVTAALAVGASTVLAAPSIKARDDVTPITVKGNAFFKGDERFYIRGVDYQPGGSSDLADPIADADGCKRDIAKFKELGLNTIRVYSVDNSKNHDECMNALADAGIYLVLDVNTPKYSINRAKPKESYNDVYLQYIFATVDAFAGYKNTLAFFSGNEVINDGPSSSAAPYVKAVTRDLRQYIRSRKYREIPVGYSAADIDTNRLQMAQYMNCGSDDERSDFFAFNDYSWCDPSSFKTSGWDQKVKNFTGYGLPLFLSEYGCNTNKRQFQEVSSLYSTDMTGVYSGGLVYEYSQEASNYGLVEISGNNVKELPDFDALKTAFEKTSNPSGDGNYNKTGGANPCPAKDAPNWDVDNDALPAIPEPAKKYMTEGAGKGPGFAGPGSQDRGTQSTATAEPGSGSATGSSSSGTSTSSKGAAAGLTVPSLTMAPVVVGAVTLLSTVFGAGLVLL
# B1: 49 kDa enzyme: β-(1-3)-glucanosyltransferase purified from cell wall autolysate of A. fumigatus, SEQ ID NO 2/3 (protein, listed as Aspergillus fumigatus)
# chain 1: MKASAVTAALAVGASTVLAAPSIKARDDVTPITVKGNAFFKGDERFYIRGVDYQPGGSSDLADPIADADGCKRDIAKFKELGLNTIRVYSVDNSKNHDECMNTLADAGIYLVLDVNTPKYSINRAKPKESYNDVYLQYIFATVDAFAGYKNTLAFFSGNEVINDGPSSSAAPYVKAVTRDLRQYIRSRKYREIPVGYSAADIDTNRLQMAQYMNCGSDDERSDFFAFNDYSWCDPSSFKTSGWDQKVKNFTGYGLPLFLSEYGCNTNKRQFQEVSSLYSTDMTGVYSGGLVYEYSQEASNYGLVEISGNNVKELPDFDALKTAFEKTSNPSGDGNYNKTGGANPCPAKDAPNWDVDNDALPAIPEPAKKYMTEGAGKGPGFAGPGSQDRGTQSTATAEPGSGSATGSSSSGTSTSSKGAAAGLTVPSLTMAPVVVGAVTLLSTVFGAGLVLL
# chain 2: DDVTPITVKGNAFFKGDERFYIRGVDYQPGGSSDLADPIADADGCKRDIAKFKELGLNTIRVYSVDNSKNHDECMNTLADAGIYLVLDVNTPKYSINRAKPKESYNDVYLQYIFATVDAFAGYKNTLAFFSGNEVINDGPSSSAAPYVKAVTRDLRQYIRSRKYREIPVGYSAADIDTNRLQMAQYMNCGSDDERSDFFAFNDYSWCDPSSFKTSGWDQKVKNFTGYGLPLFLSEYGCNTNKRQFQEVSSLYSTDMTGVYSGGLVYEYSQEASNYGLVEISGNNVKELPDFDALKTAFEKTSNPSGDGNYNKTGGANPCPAKDAPNWDVDNDALPAIPEPAKKYMTEGAGKGPGFAGPGSQDRGTQSTATAEPGSGSATGSSSSGTSTSSKGAAAGLTVPSLTMAPVVVGAVTLLSTVFGAGLVLL
# Tests used:
# [1] = target: T2, 49 kDa β-(1-3)-glucanosyltransferase (BGT2) (Aspergillus fumigatus, UniProt B0XT72); experiment: Transferase assay with reduced (^3H-marked) laminarioligosaccharides, products separated by HPAEC; format: biochemical; conditions: for activity of the transferase towards the substance as substrate/donor: incubation with 49 kDa transferase, HPAEC analysis of products
# T2 construct: from tissue; host or cells: Aspergillus fumigatus CBS 144-89 mycelium, cell wall autolysate; four ion-exchange steps and one gel filtration
# Description: The enzyme fractions were assayed for transferase activity by incubation in 50 mM Na citrate, pH 5.0 at 37° C. (10 μl volume per assay) with a laminarioligosaccharide reduced with borohydride (8 mM final) of at least size G10. Samples (3 μl) were taken at different times, 50 mM NaOH cooled in ice (47 μl) was added to terminate the reaction, and the mixture was frozen until analyzed by high-performance anion-exchange chromatography (HPAEC). Since the peak intensities detected by Pulsed Electrochemical Detector (PED) varied from day to day, the transferase activity was quantified by use of reduced laminarioligosaccharides marked with ^3H as substrates and measurement of the appearance of the marking in the products after separation by HPAEC chromatography, using the on-line Radiomatic 150TR scintillation rate analysis apparatus (Packard).
# Except where otherwise mentioned, the assays for the enzyme characterization studies were performed as above with 0.25 μg of purified transferase.
# The samples from the transferase tests were analyzed on a Dionex CarboPac PA1 analytical column (4×250 mm) (with a PA1 reference column) on a Dionex HPAEC-type system with pulsed electrochemical detection (PED-2 cell), fitted with a combination of pH-Ag/AgCl reference electrodes and using a potential of 0.4 V for the first 0.5 s of detection. The oligosaccharides were eluted under the following conditions: flow rate 1 ml/min, buffer A: 50 mM NaOH; buffer B: 500 mM sodium acetate in 50 mM NaOH; gradient 0 to 2 min, 98% A 2% B (isocratic), 2 to 15 min 75% A 25% B (linear), 15 to 45 min 60% A 40% B (linear).
# In order to determine the relative reaction rate of the enzymes with laminarioligosaccharides of variable sizes, the 49 kDa enzyme (0.25 μg) was incubated with 8 mM of rG10 to rG15 marked with ^3H and the rate of formation of the marked products was measured. The rate with rG10 (328 nmol.min^−1) was approximately equal to 50% of that with the larger substrates and there was no significant difference between the reaction rates for rG11 to rG15 (648±46 nmol.min^−1.mg protein^−1).
# The relative rate of the reaction with the acceptors was determined by using 2 mM of rG11 as donor and 32 mM of reduced acceptor marked with ^3H and measuring the formation of marked transferase product (FIG. 4). Under these conditions, the reaction with rG11 used as acceptor was negligible. The reaction rate increased with an increase in chain length, showing that the 49 kDa enzyme prefers the larger laminarioligosaccharide acceptors.
# By using rG11 as substrate, it was impossible to calculate an apparent Km corresponding to the two steps of the reaction. In order to determine a Km for the donor site, we used an acceptor which was not a donor. We used [^3H]-rG7 (1×10^6 cpm) as acceptor at a high concentration (64 mM) with different concentrations of rG11 kept below 8 mM. Under these conditions, the reaction took place with rG11 as donor and rG7 was used rather than rG11 as acceptor, as determined by the absence of formation of the transferase product rG16. The initial reaction rate was determined by measuring the appearance of marked rG12.
# 49 kDa enzyme = target: T1, 49 kDa enzyme; experiment: Optimum pH and storage stability of the 49 kDa enzyme; format: biochemical
# Description: FIG. 6 illustrates the effect of pH on the transfer rate. The 49 kDa transferase was incubated with 8 μM of [^3H]-rG11 (1×10^6 cpm). The reaction rates were determined by measuring the quantity of marking formed in the form of the product rG16. The buffers used were: ●, sodium citrate/citric acid; ∘, imidazole/citric acid; x, sodium acetate/acetic acid; [formula], Tris/glycine; ▴, phosphate/NaOH; □, Tris/acetic acid; Δ, glycine/HCl.
# The 49 kDa enzyme was tested at different pH values, the storage stability was verified and the activity of the N-glycosylated enzyme was tested. The enzyme was active over a wide range of acid pH, showing an activity of more than 50% of its maximum between pH 2.5 and 6.0.
Molecule,activity of the transferase towards the substance as substrate/donor [1],other results
reduced laminarihexose [[^3H]-rG6],,"Transfer rate ([1]; 2 mM rG11 as donor, 32 mM ^3H-marked reduced acceptor, initial rate of formation of transfer product): 387 nmol.min^−1.mg protein^−1"
chitohexaose,no activity,
OC[C@H]1O[C@@H](O[C@H]2[C@H](O)[C@@H](O)[C@H](O[C@H]3[C@H](O)[C@@H](O)[C@H](O[C@H]4[C@H](O)[C@@H](O)[C@H](O[C@H]5[C@H](O)[C@@H](O)C(O)O[C@@H]5CO)O[C@@H]4CO)O[C@@H]3CO)O[C@@H]2CO)[C@H](O)[C@@H](O)[C@@H]1O (stereo partly shown) [ceflopentaose],no activity,
maltoheptaose,no activity,
gentiooligosaccharides,no activity,
B1,,"storage stability (49 kDa enzyme; 4° C. in 10 mM citrate buffer pH 5.0 for several weeks, speed-vac dried and re-suspended, or −20° C.): without significant loss of activity; pH optimum (49 kDa enzyme; citrate buffer): about 5.0"
